The values below come from article PMC8623273, “Novel N7-Arylmethyl Substituted Dinucleotide mRNA 5′ cap Analogs: Synthesis and Evaluation as Modulators of Translation” (Pharmaceutics, 2021).

The target of assay [1] is eIF4E (Mus musculus, UniProt P63073). Nature of the assay: fluorescence anisotropy (FA) competition assay with eIF4E. The format is binding. The note with it: Table S2.
In assay [2] the target is eukaryotic translation initiation factor 4E (eIF4E) (Mus musculus, UniProt P63073). Nature of the assay: pyrene-probe fluorescent competitive-binding assay (PyFLINT-B) for cap analog-eIF4E.
eukaryotic translation initiation factor 4E (eIF4E), sequence (P63073 whole entry): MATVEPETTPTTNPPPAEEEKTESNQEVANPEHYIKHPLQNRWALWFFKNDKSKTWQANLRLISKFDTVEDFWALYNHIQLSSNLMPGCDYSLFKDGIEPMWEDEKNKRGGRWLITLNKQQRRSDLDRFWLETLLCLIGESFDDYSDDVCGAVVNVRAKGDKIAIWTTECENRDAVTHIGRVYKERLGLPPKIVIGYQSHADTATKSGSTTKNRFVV
In assay [3] the test system is cap-dependent translation in rabbit reticulocyte lysate (RRL). Nature of the assay: inhibition of cap-dependent translation in rabbit reticulocyte lysate (RRL). The format is biochemical.

Like-named read-outs stand apart in the source and are kept apart here.

eIF4E, sequence (P63073 whole entry): as above

As to `Cn1c[n+]([C@@H]2O[C@H](COP(=O)(O)OP(=O)([O-])OP(=O)(O)OC[C@H]3O[C@@H](n4cnc5c(=O)[nH]c(N)nc54)[C@H](O)[C@@H]3O)[C@@H](O)[C@H]2O)c2nc(N)[nH]c(=O)c21` [m^7GpppG, reference compound], the EC50 amounted to 410 ± 10 nM in assay [1] (25 °C, probe m^7GTP-triazol-FAM 10 nM, eIF4E 100 nM) and 2700 ± 300 nM in assay [2] (Table S2). Besides, the Kd was 127 ± 5 nM in assay [1] (calculated from EC50) and 229 ± 37 nM in assay [2] (pyrene-based high-throughput competition assay, 30 °C, KD calculated from EC50, read-out: KD Cap-eIF4E ± SD). The IC50 was 11400 ± 2400 nM in assay [3] (RRL, cap analog and mRNA added at the same time (no pre-incubation), 60 min, 30 °C, read-out: Translation Inhibition IC50); 30100 nM in assay [3] (cap analog incubated in RRL for 1 h prior to adding mRNA, read-out: Translation Inhibition IC50 (value in brackets) (converted)).

A word on the EC50: it is the concentration at which the effect is half-maximal. As a reminder, the Kd is the concentration at which binding is half-saturated. By IC50 is commonly meant the point on the concentration scale where inhibition reaches its midpoint.
